Reference: patent US6358885B1, “Substituted phenylheterocyclic herbicides” (Mississippi State University, priority 1992, dated 2002)

Tests used:
blackgrass = experiment: Test B preemergence/postemergence greenhouse plant response rating 0 to 10; format: in vivo, Alopecurus myosuroides; details: 0 to 10 scale
In short: (§1)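 Both application timings were run together: seeds got compound preemergence, and established seedlings (two to eighteen cm) got it postemergence. Non-phytotoxic solvent carried the chemical. Ratings are visual, versus controls, at twelve to sixteen days.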

corn = experiment: as above; format: in vivo, Zea mays; details: 0 to 10 scale
In short: as §1

cotton [1] = experiment: as above; format: in vivo, Gossypium hirsutum; details: 0 to 10 scale
In short: as §1

crabgrass = experiment: as above; format: in vivo, Digitaria spp.; details: 0 to 10 scale
In short: as §1

rice = experiment: as above; format: in vivo, Oryza sativa; details: 0 to 10 scale
In short: as §1

sorghum = experiment: as above; format: in vivo, Sorghum bicolor; details: 0 to 10 scale
In short: as §1

sugar beet = experiment: as above; format: in vivo, Beta vulgaris; details: 0 to 10 scale
In short: as §1

wheat [2] = experiment: as above; format: in vivo, Triticum aestivum; details: 0 to 10 scale
In short: as §1

wild oat = experiment: as above; format: in vivo, Avena fatua; details: 0 to 10 scale
In short: as §1

purple nutsedge = experiment: as above; format: in vivo, Cyperus rotundus; details: 0 to 10 scale
In short: as §1

cotton [3] = experiment: Test C preemergence/postemergence greenhouse plant response rating 0 to 100; format: in vivo, Gossypium hirsutum; details: POSTEMERGENCE
In short: (§2)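 Compounds in non-phytotoxic solvent applied preemergence to sandy loam one day after planting, postemergence at the 1–4 leaf stage, or to ~2.5 cm floodwater over silt loam.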

lambsquarters = experiment: as above; format: in vivo, Chenopodium album; details: POSTEMERGENCE
In short: as §2

pigweed = experiment: as above; format: in vivo, Amaranthusretroflexus; details: POSTEMERGENCE
In short: as §2

velvetleaf = experiment: as above; format: in vivo, Abutilon theophrasti; details: POSTEMERGENCE
In short: as §2

wheat [4] = experiment: as above; format: in vivo, Triticum aestivum; details: POSTEMERGENCE
In short: as §2

wild buckwheat = experiment: as above; format: in vivo, Polygonum convolvulus; details: POSTEMERGENCE
In short: as §2

duck salad = experiment: Test C flood test plant response rating 0 to 100; format: in vivo, Heteranthera limosa
In short: as §2

barnyardgrass = experiment: Test C flood test plant response rating 0 to 100; format: in vivo, Echinochloa crus-galli
In short: as §2

[5] = POSTEMERGENCE section, flood test, Rate 1 g/ha
[6] = Rate 16 g/ha, under POSTEMERGENCE head (flood test species)
[7] = flood test species listed under POSTEMERGENCE, 62 g/ha, 0 to 100 scale

C=CCN1C(=O)COc2cc(F)c(-c3nn4c(c3Cl)CCCC4)cc21 [Compound 33]
50: Plant response rating (0 to 100), Lambsquarters (lambsquarters; Rate 1 g/ha) | Plant response rating (0 to 100), Wheat (wheat [4]; Rate 16 g/ha)
60: Plant response rating, Wheat (wheat [4]; 62 g/ha, 0 to 100 scale)
5: Plant response rating, Blackgrass (blackgrass; POSTEMERGENCE, Rate 50 g/ha) | Plant response rating, Blackgrass (blackgrass; PREEMERGENCE, Rate 50 g/ha) | Plant response rating, Crabgrass (crabgrass; POSTEMERGENCE, Rate 50 g/ha) | Plant response rating, Wheat (wheat [2]; POSTEMERGENCE, Rate 50 g/ha) | Plant response rating, Wild oat (wild oat; POSTEMERGENCE, Rate 50 g/ha) | Plant response rating, Nutsedge (purple nutsedge; POSTEMERGENCE, Rate 50 g/ha)
95: Plant response rating (0 to 100), Barnyardgrass (barnyardgrass; [6])
2: Plant response rating, Crabgrass (crabgrass; PREEMERGENCE, Rate 10 g/ha) | Plant response rating, Wheat (wheat [2]; PREEMERGENCE, Rate 50 g/ha)
0: Plant response rating, Corn (corn; PREEMERGENCE, Rate 50 g/ha) | Plant response rating, Cotton (cotton [1]; PREEMERGENCE, Rate 10 g/ha) | Plant response rating, Cotton (cotton [1]; PREEMERGENCE, Rate 50 g/ha) | Plant response rating, Sorghum (sorghum; PREEMERGENCE, Rate 50 g/ha) | Plant response rating, Nutsedge (purple nutsedge; POSTEMERGENCE, Rate 10 g/ha) | Plant response rating, Nutsedge (purple nutsedge; PREEMERGENCE, Rate 50 g/ha) | Plant response rating (0 to 100), Duck salad (duck salad; [5]) | Plant response rating (0 to 100), Duck salad (duck salad; POSTEMERGENCE section, flood test, Rate 4 g/ha)
6: Plant response rating, Crabgrass (crabgrass; PREEMERGENCE, Rate 50 g/ha) | Plant response rating, Rice (rice; POSTEMERGENCE, Rate 10 g/ha) | Plant response rating, Sorghum (sorghum; POSTEMERGENCE, Rate 10 g/ha) | Plant response rating, Sorghum (sorghum; POSTEMERGENCE, Rate 50 g/ha)
4: Plant response rating, Blackgrass (blackgrass; POSTEMERGENCE, Rate 10 g/ha) | Plant response rating, Corn (corn; POSTEMERGENCE, Rate 50 g/ha) | Plant response rating, Wild oat (wild oat; POSTEMERGENCE, Rate 10 g/ha)
10: Plant response rating, Cotton (cotton [1]; POSTEMERGENCE, Rate 10 g/ha) | Plant response rating, Cotton (cotton [1]; POSTEMERGENCE, Rate 50 g/ha) | Plant response rating, Sugar beet (sugar beet; POSTEMERGENCE, Rate 10 g/ha) | Plant response rating, Sugar beet (sugar beet; POSTEMERGENCE, Rate 50 g/ha) | Plant response rating, Sugar beet (sugar beet; PREEMERGENCE, Rate 50 g/ha)
65: Plant response rating (0 to 100), Duck salad (duck salad; [6]) | Plant response rating (0 to 100), Barnyardgrass (barnyardgrass; Rate 4 g/ha, under POSTEMERGENCE head (flood test species))
7: Plant response rating, Rice (rice; POSTEMERGENCE, Rate 50 g/ha) | Plant response rating, Wild oat (wild oat; PREEMERGENCE, Rate 50 g/ha)
100: Plant response rating, Cotton (cotton [3]; 62 g/ha, 0 to 100 scale) | Plant response rating (0 to 100), Cotton (cotton [3]; Rate 1 g/ha) | Plant response rating (0 to 100), Cotton (cotton [3]; Rate 4 g/ha) | Plant response rating (0 to 100), Cotton (cotton [3]; Rate 16 g/ha) | Plant response rating Lambsquarters (lambsquarters; 62 g/ha, 0 to 100 scale) | Plant response rating Pigweed (pigweed; 62 g/ha, 0 to 100 scale) | Plant response rating (0 to 100), Pigweed (pigweed; Rate 1 g/ha) | Plant response rating (0 to 100), Pigweed (pigweed; Rate 4 g/ha) | Plant response rating (0 to 100), Pigweed (pigweed; Rate 16 g/ha) | Plant response rating, Velvetleaf (velvetleaf; 62 g/ha, 0 to 100 scale) | Plant response rating (0 to 100), Velvetleaf (velvetleaf; Rate 4 g/ha) | Plant response rating (0 to 100), Velvetleaf (velvetleaf; Rate 16 g/ha) | Plant response rating, Wild buckwheat (wild buckwheat; 62 g/ha, 0 to 100 scale) | Plant response rating, Barnyardgrass (barnyardgrass; [7])
3: Plant response rating, Blackgrass (blackgrass; PREEMERGENCE, Rate 10 g/ha) | Plant response rating, Corn (corn; POSTEMERGENCE, Rate 10 g/ha) | Plant response rating, Crabgrass (crabgrass; POSTEMERGENCE, Rate 10 g/ha) | Plant response rating, Rice (rice; PREEMERGENCE, Rate 50 g/ha) | Plant response rating, Wheat (wheat [2]; POSTEMERGENCE, Rate 10 g/ha)
90: Plant response rating (0 to 100), Wild buckwheat (wild buckwheat; Rate 4 g/ha)
35: Plant response rating (0 to 100), Barnyardgrass (barnyardgrass; [5])
40: Plant response rating (0 to 100), Wheat (wheat [4]; Rate 4 g/ha)
70: Plant response rating (0 to 100), Lambsquarters (lambsquarters; Rate 4 g/ha) | Plant response rating (0 to 100), Velvetleaf (velvetleaf; Rate 1 g/ha)
80: Plant response rating (0 to 100), Lambsquarters (lambsquarters; Rate 16 g/ha) | Plant response rating (0 to 100), Wild buckwheat (wild buckwheat; Rate 1 g/ha) | Plant response rating Duck salad (duck salad; [7])
30: Plant response rating (0 to 100), Wheat (wheat [4]; Rate 1 g/ha)
